Active and inactive are the calls of the source. The calls are words filed in the database; no cut-off is given here.
Legend:
[1] = Cell cycle arrest in human DLD1 cells assessed as accumulation at G2-M phase at 30 uM after 24 hrs using propidium iodide by flow cytometry (reference value: 39.85 %); type: functional, cell-based; settings: DLD-1
[2] = Cell cycle arrest in human DLD1 cells assessed as accumulation at G0-G1 phase at 30 uM after 24 hrs using propidium iodide by flow cytometry (reference value: 35.37 %); type: functional, cell-based; settings: DLD-1
[3] = Antiproliferative activity against human DLD1 cells assessed as reduction in cell viability after 24 hrs by XTT assay; type: functional, cell-based; settings: DLD-1, 24 h
HT-29 [4] = assay: Cell cycle arrest in human HT-29 cells assessed as accumulation at sub-G1 phase at 30 uM after 24 hrs using propidium iodide by flow cytometry (reference value: 3.18 %); type: functional
HT-29 [5] = assay: Induction of apoptosis in human HT-29 cells assessed as PARP cleavage at 30 uM after 24 hrs using propidium iodide by Western blot analysis; type: functional, cell-based
[6] = Cell cycle arrest in human DLD1 cells assessed as accumulation at sub-G1 phase at 30 uM after 24 hrs using propidium iodide by flow cytometry (reference value: 1.73 %); type: functional, cell-based; settings: DLD-1
HT-29 [7] = assay: Cell cycle arrest in human HT-29 cells assessed as accumulation at G2-M phase at 30 uM after 24 hrs using propidium iodide by flow cytometry (reference value: 21.66 %); type: functional
[8] = Cell cycle arrest in human DLD1 cells assessed as accumulation at S phase at 30 uM after 24 hrs using propidium iodide by flow cytometry (reference value: 21.08 %); type: functional, cell-based; settings: DLD-1
HT-29 [9] = assay: Induction of apoptosis in human HT-29 cells assessed as APO2.7-positive cells at 30 uM after 24 hrs using propidium iodide by flow cytometry (reference value: 1.11 %); type: functional
HT-29 [10] = assay: Cell cycle arrest in human HT-29 cells assessed as accumulation at G0-G1 phase at 30 uM after 24 hrs using propidium iodide by flow cytometry (reference value: 43.78 %); type: functional
[11] = Cell cycle arrest in human HCT116 cells assessed as accumulation at G0-G1 phase at 30 uM after 24 hrs using propidium iodide by flow cytometry (reference value: 42.61 %); type: functional, cell-based; settings: HCT-116
[12] = Cell cycle arrest in human HCT116 cells assessed as accumulation at sub-G1 phase at 30 uM after 24 hrs using propidium iodide by flow cytometry (reference value: 1.78 %); type: functional, cell-based; settings: HCT-116
DLD-1 [13] = assay: Induction of apoptosis in human DLD1 cells assessed as APO2.7-positive cells at 30 uM after 24 hrs using propidium iodide by flow cytometry (reference value: 1.01 %); type: functional
HCT-116 [14] = assay: Induction of apoptosis in human HCT116 cells assessed as PARP cleavage at 30 uM after 24 hrs using propidium iodide by Western blot analysis; type: functional, cell-based
HT-29 [15] = assay: Antiproliferative activity against human HT-29 cells assessed as reduction in cell viability after 24 hrs by XTT assay; type: functional, cell-based; settings: HT-29, 24 h
HCT-116 [16] = assay: Induction of apoptosis in human HCT116 cells assessed as APO2.7-positive cells at 30 uM after 24 hrs using propidium iodide by flow cytometry (reference value: 1.19 %); type: functional
[17] = Cell cycle arrest in human HCT116 cells assessed as accumulation at G2-M phase at 30 uM after 24 hrs using propidium iodide by flow cytometry (reference value: 33.69 %); type: functional, cell-based; settings: HCT-116
DLD-1 [18] = assay: Induction of apoptosis in human DLD1 cells assessed as PARP cleavage at 30 uM after 24 hrs using propidium iodide by Western blot analysis; type: functional, cell-based
[19] = Antiproliferative activity against human HCT116 cells assessed as reduction in cell viability after 24 hrs by XTT assay; type: functional, cell-based; settings: HCT-116, 24 h
[20] = Cell cycle arrest in human HCT116 cells assessed as accumulation at S phase at 30 uM after 24 hrs using propidium iodide by flow cytometry (reference value: 18.80 %); type: functional, cell-based; settings: HCT-116
HT-29 [21] = assay: Cell cycle arrest in human HT-29 cells assessed as accumulation at S phase at 30 uM after 24 hrs using propidium iodide by flow cytometry (reference value: 28.28 %); type: functional
HT-29 [22] = assay: Antiproliferative activity against human HT-29 cells assessed as reduction in cell viability after 24 to 48 hrs by XTT assay; type: functional, cell-based
HCT-116 [23] = assay: Antiproliferative activity against human HCT116 cells assessed as reduction in cell viability after 24 to 48 hrs by XTT assay; type: functional, cell-based
DLD-1 [24] = assay: Antiproliferative activity against human DLD1 cells assessed as reduction in cell viability after 24 to 48 hrs by XTT assay; type: functional, cell-based

Row | Structure (SMILES) | Activity [1] | Activity [2] | IC50 [3] | Activity (HT-29 [4]) | Activity (HT-29 [5]) | Activity [6] | Activity (HT-29 [7]) | Activity [8] | Activity (HT-29 [9]) | Activity (HT-29 [10]) | Activity [11] | Activity [12] | Activity (DLD-1 [13]) | Activity (HCT-116 [14]) | IC50 (HT-29 [15]) | Activity (HCT-116 [16]) | Activity [17] | Activity (HT-29 [22]) | Activity (HCT-116 [23]) | Activity (DLD-1 [24]) | also measured
1 | C[C@H](CCC(=O)N1CCN(Cc2ccccc2)CC1)[C@H]1CC[C@H]2[C@@H]3CC[C@@H]4C[C@H](O)CC[C@]4(C)[C@H]3C[C@H](O)[C@]12C | 39% | 28.5% | 26 µM | 34.81% | Active | 14.3% | 11.14% | 15.4% | 1.26% | 36.89% | 33.6% | 14.8% | 2.49% | Active | 32 µM | 4.59% | 28.9% | – | – | – | Activity (DLD-1 [18]): Active; IC50 [19]: 22 µM; Activity [20]: 18.4%; Activity (HT-29 [21]): 15.67%
2 | C[C@H](CCC(=O)N1CCN(C(c2ccccc2)c2ccc(Cl)cc2)CC1)[C@H]1CC[C@H]2[C@@H]3CC[C@@H]4C[C@H](O)CC[C@]4(C)[C@H]3C[C@H](O)[C@]12C (stereo not given in full) | – | – | – | – | – | – | – | – | – | – | – | – | – | – | – | – | – | Dose-dependent effect | Dose-dependent effect | Dose-dependent effect | –
3 | C[C@H](CCC(=O)N1CCN(C/C=C/c2ccccc2)CC1)[C@H]1CC[C@H]2[C@@H]3[C@H](O)C[C@@H]4C[C@H](O)CC[C@]4(C)[C@H]3CC[C@]12C | 6.22% | 24% | 36 µM | 48.38% | Active | 49.8% | 4.77% | 18.8% | 8.79% | 28.49% | 33% | 31.2% | 34.87% | Active | 35 µM | 37.73% | 11.3% | – | – | – | Activity (DLD-1 [18]): Active; IC50 [19]: 34 µM; Activity [20]: 22.5%; Activity (HT-29 [21]): 18.65%
4 | C[C@H](CCC(=O)N1CCN(Cc2ccccc2)CC1)[C@H]1CC[C@H]2[C@@H]3[C@H](O)C[C@@H]4C[C@H](O)CC[C@]4(C)[C@H]3CC[C@]12C | 32.2% | 40% | 33 µM | 18.13% | Active | 10.7% | 13.63% | 14.1% | 8.57% | 49.08% | 36.9% | 13% | 22.54% | Active | 36 µM | 20.33% | 26.6% | – | – | – | Activity (DLD-1 [18]): Active; IC50 [19]: 23 µM; Activity [20]: 17.8%; Activity (HT-29 [21]): 17.11%
5 | C[C@H](CCC(=O)N1CCN(C(c2ccc(F)cc2)c2ccc(F)cc2)CC1)[C@H]1CC[C@H]2[C@@H]3[C@H](O)C[C@@H]4C[C@H](O)CC[C@]4(C)[C@H]3CC[C@]12C | – | – | – | – | – | – | – | – | – | – | – | – | – | – | – | – | – | Dose-dependent effect | Dose-dependent effect | Dose-dependent effect | –
6 | C[C@H](CCC(=O)N1CCN(Cc2ccccc2)CC1)[C@H]1CC[C@H]2[C@@H]3CC[C@@H]4C[C@H](O)CC[C@]4(C)[C@H]3CC[C@]12C | – | – | – | – | – | – | – | – | – | – | – | – | – | – | – | – | – | Dose-dependent effect | Dose-dependent effect | Dose-dependent effect | –
7 | C[C@H](CCC(=O)N1CCN(C(c2ccccc2)c2ccc(Cl)cc2)CC1)[C@H]1CC[C@H]2[C@@H]3[C@@H](O)C[C@@H]4C[C@H](O)CC[C@]4(C)[C@H]3CC[C@]12C (stereo not given in full) | – | – | – | – | – | – | – | – | – | – | – | – | – | – | – | – | – | Dose-dependent effect | Dose-dependent effect | Dose-dependent effect | –

From ChEMBL document CHEMBL3352062, “Synthesis and biological evaluation of bile carboxamide derivatives with pro-apoptotic effect on human colon adenocarcinoma cell lines” (Eur J Med Chem, 2014)
